According to patent US10188633B2, “Identification of small molecules that facilitate therapeutic exon skipping” (The Regents of the University of California, priority 2011, dated 2019):

Assays:
[1] = tested on: mdx mice; assay: Taut wire test (wire hang) in mdx mice, weekly AO with daily dantrolene; assay type: in vivo, mouse; conditions: 10 mg/kg/week AO with dantrolene 10 mg/kg/day versus AO alone, Day 18, p=0.022
Experimental: Weekly systemic doses of saline, 10 mg/kg of morpholino M23D (+07-18) was administered intravascularly on Day 1, 8, and 15. Dantrolene or carrier (20% DMSO in saline) was administered intraperitoneally at a dose of 10 mg/kg/day in two divided doses daily. On Day 18 functional improvement was blindly assessed by using the taut wire test. Latency to fall (in seconds) was recorded for five consecutive trials, with a one minute break occurring in between each trial. Plotted is first the average across five trials, and then the normalized average (seconds/grams) across experimental groups. Error bars represent the s.e.m.

[2] = tested on: mdx mice; assay: Intramuscular PMOE23 with systemic dantrolene in mdx mice, dystrophin in tibialis anterior; assay type: in vivo, mouse
Experimental: One dose of either 10 ug or 2 ug of morpholino M23D in 25 ul PBS was injected into the tibialis anterior (TA) of 6 week old mdx mice on day 1 (n=3 per group). Dantrolene was administered by intraperitoneal injection at either 10 or 20 mg/kg/day for 9 days in a volume of 200 ul every 12 hours. Dantrolene was solubilized in 20% DMSO in normal saline. TA muscle was harvested on Day 11 and immediately frozen in Optimal Cutting Temperature compound (O.C.T.) embedding medium. Serial sections along the TA with intervals 800 microns apart were processed to perform assessments within the TA region with maximal AO delivery. […] (A) For Western blot analysis, half of each of the 4 middle intervals were pooled. Dystrophin protein was detected using MANDYS8 (exons 31 and 32) antibody. Control C57 was loaded at 5 ug/well, and 50 ug/well was loaded for other mdx samples. (B) Western blot was quantified by densitometry and plotted as arbitrary densitometry units normalized to vinculin loading control. […] (D) Data from whole muscle cross sections from C were quantified as total fluorescence, without inclusion of edges with artifactual staining, normalized to surface area scanned. […] Images were analyzed using Ariol SL-50 (Applied Imaging Corp., San Jose, Calif.). […]
Total fluorescence was quantitated from TA sections by scanning four entire cross sections from each of the mice for each experimental group.

[3] = tested on: exon skipping; assay: Counter screens, 16 point titrations and mdx mouse myotubes (validation of lead hits); assay type: cell-based
Text: The cell line, which was adapted to allow the screening of thousands of compounds in multiple replicates, was obtained from Dr. Qi Lu. […]

[4] = tested on: Dmd exon 23; assay: Dmd exon 23 skipping in primary mouse myotubes with 2'-O-methyl AO M23D (RT-PCR, taqman); assay type: cell-based
Experimental: (A) Differentiated primary mouse myotubes were transfected either with 100 nM 2′-O-methyl M23D, which targets exon 23 splice donor region or mock transfected for 24 hours after which the transfection reagent was removed, and myotubes were treated with different concentrations of Dantrolene for 48 hours. Nested RT-PCR was performed on cDNA between exons 20-26, as previously described. The 901 bp band is the full-length mRNA product, the 688 bp mRNA product is a single skip of exon 23, and the 550 bp mRNA product is a double skip of exons 22 and 23. (B) Mouse Dmd exon 23-skipped transcript levels were quantified using a taqman assay with primer-probe sets spanning the splice junction created by an exon 23 skip (22-24 join) relative to primers amplifying the splice junction of exons 22 and 23 (representing the full length mRNA), as previously described. […] Error bars represent standard deviation of qRT-PCR triplicates. (C) Patient derived fibroblasts with exon 45-50 deletion (confirmed by microarray, see FIG. 6) were immortalized with lentiviral hTERT and transduced with inducible lentiviral MyoD [26]. Cells were grown to confluence, induced for MyoD activity, and fused for 10 days in low serum differentiation media. On Day 7, h51AON [5′ […] 3′] (SEQ ID NO:2) (same sequence as Pro051) within human exon 51 was added at concentrations indicated. Twenty-four hours later Dantrolene or vehicle was added. Cells were harvested 2 days later and total RNA isolated. RT-PCR amplified a fragment of cDNA from exons 42-53 which was followed by a nested PCR to generate a fragment spanning exons 43-52. The 540 bp product is the full length DMD mRNA species and the 307 bp product indicates the exon 51 skip isoform. Quantitation was performed using the Agilent Bioanalyzer and represented as the skip/full-length mRNA ratio.

[5] = tested on: mdx mice; conditions: mouse, in vivo; cited from earlier work
[6] = tested on: human DMD exon 50 GFP based reporter; assay: Secondary screening, 12 or 16 point titrations on the DMD exon 50 reporter cell line with or without AON6; assay type: cell-based, mouse
Experimental: 12 or 16 point titrations of compounds were added to the Ex50-GFP and C2C12 myoblasts either with or without AON6.
A stable clone was generated from C2C12 cells transfected with a human exon 50 DMD GFP reporter (ex50GFP) that has been previously described. Ex50GFP reporter myoblasts were seeded into uncoated 384 well plates and were incubated for 4 hours either with or without 300 nM of 2′-O-methyl phosphorothioate AON6 [5′[…] 3′ (SEQ ID NO:1)] targeting the human exon 50 splice donor site. Cells were transfected with AON6 using the FUGENE (Roche) transfection reagent per manufacturer's instructions. Following AON6 incubation, each component of the BioMol library (n=503) was screened at 10 uM concentration with a final concentration of the DMSO carrier being 1%. Forty-eight hours later fluorescence was measured using the MicroXpress high content imager and analyzed using MetaXpress. Immediately preceding imaging, DNA was stained with Hoescht for 30 min. The BioMol screen without AO (−AO) was performed in 6 replicates, and the with AO (+AO) screen was performed in 3 replicates. For the screen analysis raw fluorescence values were normalized to carrier controls present on each plate by subtracting the values. Negative fluorescence values were set to 0. The data from each compound were averaged from all replicates. For secondary screening by 12 or 16 point dose response, Ex50GFP myoblasts or C2C12 cells without the reporter were seeded on uncoated 384 well plates. A sub-optimal dose of AON6 targeting DMD exon 50 was added for 4 hours. Following the 4 hour incubation, a compound dilution was added (beginning at 100 uM with 1:1 dilutions) for either 12 or 16 points. After a 48 hour incubation with compounds, DNA was stained with Hoescht, and fluorescence determined using the high content imager and analyzed with MetaXpress.

[7] = tested on: DMD patients; conditions: oral, after 2 years of daily treatment; cited from earlier work
[8] = long term administration; cited from earlier work
[9] = tested on: mdx mice; assay: Systemic (intravenous) PMOE23 with intraperitoneal dantrolene in mdx mice, exon 23 skipping and dystrophin in multiple muscles; assay type: in vivo, mouse
Experimental: A systemic dose of 100 mg/kg or sub-optimal 10 mg/kg of morpholino M23D (+07-18) was administered by tail vein injection on Day 1. From Day 2-7 Dantrolene was administered intraperitoneally at a dose of 10 mg/kg/day in two divided doses. On Day 8 multiple muscles were harvested for analysis. (A) DMD exon 23 skipping was assessed as in FIG. 3. Skip/full-length mRNA ratio data were combined for all mice and for all initial muscle groups tested (quadricep, gastrocnemius, tibialis anterior and diaphragm). (B) Dystrophin protein was assessed by Western blot (Mandys8) quantitative densitometry for all muscle groups and individual mice (quadricep, gastrocnemius, tibialis anterior and diaphragm). (C) Quantitative immunohistochemistry is plotted as arbitrary units normalized to surface area for each section for all muscle groups and mice using one whole muscle cross section per animal per muscle. […] (E) Immunostaining of serial sections of treated mdx quadricep detects sarcolemmal localization of dystrophin (MANDYS8), alpha-sarcoglycan (NCL-a-sarc) and beta-dystroglycan (NCL-b-DG). […] Error bars in A-C represent the standard deviation among mice and muscles in each group (n=3 animals or n=12 total observations in saline+dantrolene and 100 mg/kg AO+DMSO; n=4 animals or n=16 observations in 10 mg/kg AO with Dantrolene or DMSO).
This enabled us to assess whether dantrolene in combination with systemic morpholino PMOE23 could enhance Dmd exon 23 skipping and induce dystrophin protein expression in multiple skeletal muscles. A single intravenous dose of 100 mg/kg PMOE23 was used as a positive control. A single intravenous dose of 10 mg/kg AO was used as a sub-optimal dose alone or in combination with twice daily dosing of 10 mg/kg/day of dantrolene intraperitoneally for the subsequent 6 days [7, 27] (n=3 in control groups and n=4 in experimental groups; Table 5).
Multiple skeletal muscles were harvested for analysis on day 7 including the quadriceps, gastrocnemius, tibialis anterior, diaphragm, triceps and heart. Muscles were assessed for: 1) increased amounts of skipped Dmd exon 23 mRNA species 2) Dystrophin protein rescue by Western blot 3) Dystrophin protein expression by quantitative immunostain, 4) appropriate subcellular localization, and 5) restoration of other components of the dystroglycan complex to the sarcolemmal membrane. To determine if dantrolene enhanced Dmd exon 23 skipping, the quantitative taqman assay was performed on RNA from each skeletal muscle.
RNA was isolated from snap frozen skeletal muscle using the QIAGEN RNAeasy Fibrous Tissue Kit.

[10] = 10 mg/kg PMOE23 IV with dantrolene 10 mg/kg/day IP

O=C1CN(/N=C/c2ccc(-c3ccc([N+](=O)[O-])cc3)o2)C(=O)N1 [DANTROLENE]
taut wire test, latency to fall (muscle strength) ([1]; listed as Dantrolene): significantly increased ability of mdx mice to hang on wire
taut wire test, latency to fall (muscle strength) ([1]; listed as dantrolene): functional benefit
induced levels of dystrophin (Western blot) ([2]; dantrolene 10 or 20 mg/kg/day IP with 2 ug PMOE23 IM): about 20 % of C57 dystrophin levels
dystrophin protein rescue with and without PMOE23 ([2]; dantrolene IP, immunofluorescence and Western blot): only rescued protein expression in the presence of PMOE23
efficacy in counter screen and on mdx mouse myotubes [3]: showing efficacy in counter screen and on mdx mouse myotubes
amount of exon 23 skipped product (RT-PCR exons 20-26) ([4]; 25 and 50 uM dantrolene after 100 nM M23D): increased the amount of exon 23 skipped product
exon 23 skipping in the absence of AO ([4]; no AO): failed to cause exon 23 skipping
increase of Dmd exon 23 skipping (skip/full length mRNA, taqman) versus AO alone ([4]; with suboptimal 100 nM AO M23D, mouse myotubes): 3 fold
CK values [5]: lower CK values
increase in fluorescence in the Ex50-GFP+AO compared to the reporter line without AO ([6]; 12 or 16 point titrations from 100 uM, positivity criterion (FIG. 5 legend: >10%)): 10%
dose response in Ex50-GFP reporter ([6]; 12 or 16 point titrations with AON6): evidence of a dose response
creatine kinase levels [7]: slightly reduced
manual muscle test [7]: modest improvement
side effects [7]: without substantial harmful side effects
dose shown to be safe in humans [8]: up to 8 mg/kg/day
Dmd exon 23 mRNA skipping, aggregate analysis of all skeletal muscle groups (excluding heart) [9, 10]: significantly increased
Dmd exon 23 skipping in the gastrocnemius, TA, diaphragm and quadriceps [9, 10]: enhanced skipping
Dmd exon 23 skipping in the triceps [9, 10]: Enhancement was not apparent
Dmd exon 23 skipping in heart muscle ([9]; any experimental condition): No appreciable skipping
mean fold increase in dystrophin protein expression, PMOE23 with dantrolene relative to PMOE23 with vehicle ([9]; pooled Western blot densitometry across quadricep, gastrocnemius, TA and diaphragm): 3.1 fold
